Square brackets hold non-standard residues; d marks the D form. Peptide text beside a SMILES is read from it. * marks the point of attachment. Fmoc = O=C(OCC1c2ccccc2-c2ccccc21)*; Aib = CC(C)(N)C(=O)O

Assay [1] has as its system MCF7. In words: Cytotoxicity against Homo sapiens (human) MCF7 cells assessed as cell viability at 50 uM after 48 hr by MTT assay relative to control. To be noted: MCF7, 48 h, read-out: Activity. In kind it is functional.
Assay [2] deals with MCF7. In words: Cytotoxicity against Homo sapiens (human) MCF7 cells assessed as cell viability at 25 uM after 48 hr by MTT assay relative to control. To be noted: MCF7, 48 h, read-out: Activity. In kind it is functional. In general terms: Tetrazolium assays rely on reduction of a dye to a coloured formazan, in cell work by metabolically active cells.
Assay [3] deals with MCF7. In words: Cytotoxicity against Homo sapiens (human) MCF7 cells assessed as cell viability at 75 uM after 48 hr by MTT assay relative to control. Conditions: MCF7, 48 h, read-out: Activity. In kind it is functional.
In assay [4] the test system is MCF7. Description: Cytotoxicity against Homo sapiens (human) MCF7 cells assessed as cell viability at 100 uM after 48 hr by MTT assay relative to control. Conditions: MCF7, 48 h, read-out: Activity. In kind it is functional.
Assay [5] deals with Growth factor receptor-bound protein 2 (Homo sapiens, UniProt P62993). In words: Binding affinity to Grb2-SH2 (unknown origin) by surface plasmon resonance analysis.
The test system of assay [6] is MCF7. Description: Cytotoxicity against Homo sapiens (human) MCF7 cells assessed as cell viability after 48 hr by MTT assay. It counts as functional, cell-based. To be noted: MCF7, 48 h.
In assay [7] the test system is MCF7. In words: Cytotoxicity against Homo sapiens (human) MCF7 cells assessed as cell viability after 24 hr by MTT assay. Conditions: MCF7, 24 h. In kind it is functional, cell-based.

Growth factor receptor-bound protein 2, sequence (P62993 whole entry): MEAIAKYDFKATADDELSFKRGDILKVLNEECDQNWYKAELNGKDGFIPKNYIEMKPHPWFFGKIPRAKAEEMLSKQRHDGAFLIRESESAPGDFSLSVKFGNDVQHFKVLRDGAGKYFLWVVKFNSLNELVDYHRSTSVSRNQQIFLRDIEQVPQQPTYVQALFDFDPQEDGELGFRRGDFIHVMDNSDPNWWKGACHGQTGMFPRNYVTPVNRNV

For orientation: Kd means the equilibrium constant for the complex coming apart. High values mean weaker binding, low ones tighter binding. Regarding `CC(C)(NC(=O)[C@H](Cc1ccc(O)cc1)NC(=O)[C@H](CCC(=O)O)NC(=O)OCC1c2ccccc2-c2ccccc21)C(=O)N[C@@H](CC(N)=O)C(=O)O` (Fmoc-EY[Aib]N-OH), the viability at 50 µM with MCF7 [1] came out at 104%. Besides, in the assay on MCF7 [2], the viability at 25 µM turned out to be 104%. Moreover, the viability at 75 µM in the assay with MCF7 [3] was 98.2%. In addition, the viability at 100 µM in the assay with MCF7 [4] came to 95.1%. For the same compound, binding in assay [5] was characterised by a dissociation constant (Kd) of 6.3 nM.

Broadly, the IC50 is the concentration that inhibits the measured activity by half. For `CC(C)(NC(=O)[C@H](Cc1ccc(O)cc1)NC(=O)[C@H](CCC(=O)O)NC(=O)OCC1c2ccccc2-c2ccccc21)C(=O)N[C@@H](CC(N)=O)C(=O)NCC(=O)N[C@@H](CCCNC(=N)N)C(=O)N[C@@H](CCCCN)C(=O)N[C@@H](CCCCN)C(=O)N[C@@H](CCCNC(=N)N)C(=O)N[C@@H](CCCNC(=N)N)C(=O)O` (Fmoc-EY[Aib]NGRKKRR-OH), the viability at 50 µM with MCF7 [1] came to 91.6%. Also, in the assay with MCF7 [2], the viability at 25 µM worked out at 84.2%. Moreover, the viability at 75 µM in the assay on MCF7 [3] amounted to 90.9%. The IC50 in the assay on MCF7 [6] was greater than 100 µM. For the same compound, the viability at 100 µM in the assay on MCF7 [4] is 85.3%.

Take `CC[C@H](C)[C@H](NC(=O)[C@H](C)NC(=O)[C@@H](NC(=O)[C@H](Cc1ccc(O)cc1)NC(=O)[C@H](CC(N)=O)NC(=O)C(C)(C)NC(=O)[C@H](Cc1ccc(O)cc1)NC(=O)[C@H](CCC(=O)O)NC(=O)OCC1c2ccccc2-c2ccccc21)[C@@H](C)O)C(=O)N[C@@H](C)C(=O)N[C@@H](Cc1c[nH]c2ccccc12)C(=O)N[C@H](C(=O)N[C@@H](CCCCN)C(=O)N[C@@H](C)C(=O)N[C@@H](Cc1ccccc1)C(=O)N[C@H](C(=O)N[C@@H](CCCNC(=N)N)C(=O)N[C@@H](CCCCN)C(=O)N[C@@H](CC(C)C)C(=O)N[C@@H](CCCNC(=N)N)C(=O)N[C@@H](CCCCN)C(=O)O)[C@@H](C)CC)C(C)C` (Fmoc-EY[Aib]NYTAIAWVKAFIRKLRK-OH): the viability at 50 µM in the assay with MCF7 [1] amounted to 86.5%. The viability at 25 µM in the assay with MCF7 [2] is 94.1%. Moreover, the viability at 75 µM in the assay with MCF7 [3] came out at 77.3%. Besides, the 50% inhibitory concentration (IC50) with MCF7 [6] is greater than 100 µM. The viability at 100 µM with MCF7 [4] came to 79.8%.

With `CC(C)(NC(=O)[C@H](Cc1ccc(O)cc1)NC(=O)[C@@H](N)CCC(=O)O)C(=O)N[C@@H](CC(N)=O)C(=O)NCC(=O)N[C@@H](CCCNC(=N)N)C(=O)N[C@@H](CCCCN)C(=O)N[C@@H](CCCCN)C(=O)N[C@@H](CCCNC(=N)N)C(=O)N[C@@H](CCCNC(=N)N)C(=O)O` (H-EY[Aib]NGRKKRR-OH), in the assay with MCF7 [1], the viability at 50 µM worked out at 99.4%. The viability at 25 µM in the assay on MCF7 [2] came to 90.7%. Moreover, the viability at 75 µM with MCF7 [3] is 91.5%. Besides, in the assay on MCF7 [6], the IC50 was greater than 100 µM. For the same compound, the viability at 100 µM in the assay with MCF7 [4] stood at 93.1%.

For `CC[C@H](C)[C@H](NC(=O)[C@H](C)NC(=O)[C@@H](NC(=O)[C@H](Cc1ccc(O)cc1)NC(=O)[C@H](CC(N)=O)NC(=O)C(C)(C)NC(=O)[C@H](Cc1ccc(O)cc1)NC(=O)[C@@H](N)CCC(=O)O)[C@@H](C)O)C(=O)N[C@@H](C)C(=O)N[C@@H](Cc1c[nH]c2ccccc12)C(=O)N[C@H](C(=O)N[C@@H](CCCCN)C(=O)N[C@@H](C)C(=O)N[C@@H](Cc1ccccc1)C(=O)N[C@H](C(=O)N[C@@H](CCCNC(=N)N)C(=O)N[C@@H](CCCCN)C(=O)N[C@@H](CC(C)C)C(=O)N[C@@H](CCCNC(=N)N)C(=O)N[C@@H](CCCCN)C(=O)O)[C@@H](C)CC)C(C)C` (H-EY[Aib]NYTAIAWVKAFIRKLRK-OH), the viability at 50 µM in the assay with MCF7 [1] was 80.4%. Also, in the assay with MCF7 [2], the viability at 25 µM worked out at 95.4%. The viability at 75 µM in the assay on MCF7 [3] was 40.5%. Besides, the half-maximal inhibitory concentration (IC50) in the assay on MCF7 [6] amounted to 67.1 µM; in the assay on MCF7 [7], 87 µM. The viability at 100 µM with MCF7 [4] was determined as 19.3%.

Take `N=C(N)NCCC[C@H](NC(=O)[C@H](CCCNC(=N)N)NC(=O)[C@H](CCCCN)NC(=O)[C@H](CCCCN)NC(=O)[C@H](CCCNC(=N)N)NC(=O)CN)C(=O)O` (H-GRKKRR-OH): the viability at 50 µM with MCF7 [1] turned out to be 98.5%. In addition, in the assay with MCF7 [2], the viability at 25 µM was determined as 93.9%. Also, in the assay with MCF7 [3], the viability at 75 µM was 102%. Besides, the IC50 in the assay with MCF7 [6] was greater than 100 µM. The viability at 100 µM in the assay on MCF7 [4] turned out to be 95.4%.

In the case of `CC(C)(NC(=O)[C@H](Cc1ccc(O)cc1)NC(=O)[C@H](CCC(=O)O)NC(=O)[C@H](CCCNC(=N)N)NC(=O)[C@H](CCCNC(=N)N)NC(=O)[C@H](CCCCN)NC(=O)[C@H](CCCCN)NC(=O)[C@H](CCCNC(=N)N)NC(=O)CN)C(=O)N[C@@H](CC(N)=O)C(=O)O` (H-GRKKRREY[Aib]N-OH), the viability at 50 µM in the assay with MCF7 [1] worked out at 91.6%. Besides, the viability at 25 µM with MCF7 [2] was found to be 90.9%. Moreover, the viability at 75 µM in the assay on MCF7 [3] turned out to be 83.2%. In the assay on MCF7 [6], the IC50 was greater than 100 µM. Moreover, the viability at 100 µM in the assay with MCF7 [4] was found to be 82.1%.

In the case of `CC[C@H](C)[C@H](NC(=O)[C@H](C)NC(=O)[C@@H](NC(=O)[C@H](Cc1ccc(O)cc1)NC(=O)[C@H](Cc1ccc(O)cc1)NC(=O)[C@H](CCC(=O)O)NC(=O)C(C)(C)NC(=O)[C@@H](N)CC(N)=O)[C@@H](C)O)C(=O)N[C@@H](C)C(=O)N[C@@H](Cc1c[nH]c2ccccc12)C(=O)N[C@H](C(=O)N[C@@H](CCCCN)C(=O)N[C@@H](C)C(=O)N[C@@H](Cc1ccccc1)C(=O)N[C@H](C(=O)N[C@@H](CCCNC(=N)N)C(=O)N[C@@H](CCCCN)C(=O)N[C@@H](CC(C)C)C(=O)N[C@@H](CCCNC(=N)N)C(=O)N[C@@H](CCCCN)C(=O)O)[C@@H](C)CC)C(C)C` (H-N[Aib]EYYTAIAWVKAFIRKLRK-OH), the viability at 50 µM with MCF7 [1] is 78.9%. In addition, the viability at 25 µM in the assay on MCF7 [2] amounted to 85.3%. In addition, in the assay with MCF7 [3], the viability at 75 µM worked out at 56.9%. Also, the IC50 with MCF7 [6] was found to be 72.4 µM. Besides, in the assay with MCF7 [4], the viability at 100 µM came to 40.6%.

As for `CC[C@H](C)[C@H](NC(=O)[C@H](C)NC(=O)[C@@H](N)Cc1ccc(O)cc1)C(=O)N[C@@H](C)C(=O)N[C@@H](Cc1c[nH]c2ccccc12)C(=O)N[C@H](C(=O)N[C@@H](CCCCN)C(=O)N[C@@H](C)C(=O)N[C@@H](Cc1ccccc1)C(=O)N[C@H](C(=O)N[C@@H](CCCNC(=N)N)C(=O)N[C@@H](CCCCN)C(=O)N[C@@H](CC(C)C)C(=O)N[C@@H](CCCNC(=N)N)C(=O)N[C@@H](CCCCN)C(=O)N[C@@H](CCC(=O)O)C(=O)N[C@@H](Cc1ccc(O)cc1)C(=O)NC(C)(C)C(=O)N[C@@H](CC(N)=O)C(=O)O)[C@@H](C)CC)C(C)C` (H-YAIAWVKAFIRKLRKEY[Aib]N-OH), in the assay with MCF7 [1], the viability at 50 µM is 74.4%. In the assay on MCF7 [2], the viability at 25 µM was determined as 83.8%. Moreover, the viability at 75 µM in the assay on MCF7 [3] was 64.5%. In addition, in the assay with MCF7 [6], the 50% inhibitory concentration (IC50) is greater than 100 µM. Further, in the assay with MCF7 [4], the viability at 100 µM stood at 59.9%.

In the case of `CC[C@H](C)[C@H](NC(=O)[C@H](C)NC(=O)[C@@H](NC(=O)[C@@H](N)Cc1ccc(O)cc1)[C@@H](C)O)C(=O)N[C@@H](C)C(=O)N[C@@H](Cc1c[nH]c2ccccc12)C(=O)N[C@H](C(=O)N[C@@H](CCCCN)C(=O)N[C@@H](C)C(=O)N[C@@H](Cc1ccccc1)C(=O)N[C@H](C(=O)N[C@@H](CCCNC(=N)N)C(=O)N[C@@H](CCCCN)C(=O)N[C@@H](CC(C)C)C(=O)N[C@@H](CCCNC(=N)N)C(=O)N[C@@H](CCCCN)C(=O)O)[C@@H](C)CC)C(C)C` (H-YTAIAWVKAFIRKLRK-OH), the viability at 50 µM in the assay on MCF7 [1] was 97.7%. The viability at 25 µM in the assay with MCF7 [2] turned out to be 101%. For the same compound, in the assay with MCF7 [3], the viability at 75 µM worked out at 96.4%. Also, the IC50 in the assay on MCF7 [6] was greater than 100 µM. For the same compound, in the assay with MCF7 [4], the viability at 100 µM was 94.9%.

The values above are taken from ChEMBL document CHEMBL3045965, “Design, synthesis, and evaluation of fluorescent cell-penetrating peptidic antagonists of Grb2-SH2 for targeting MCF-7 breast cancer cells” (Med Chem Res, 2013).
